Data published in patent US20090142363A1, “CYTOTOXIC T-CELL EPITOPE PEPTIDE AND USE THEREOF” (priority 2005, published 2009).
No end group written: not given here.

Assays:
[1] = system: CTL line induced by TYF (PBMCs from ID*24-8); test: Cross-reactivity of the TYF-induced CTL line to the subgroup C-specific CTL epitope; type: cell-based, human
From the text: As shown in FIG. 11-4, there are amino acid mutations at the fourth and sixth positions in TYF identified in the present invention as compared to the subgroup C-specific CTL epitopes. Thus, the cross-reactivity to subgroup C-specific CTL epitope ([…] (SEQ ID NO: 14); mutated amino acids are underlined) (Leen A M, Sili U, Vanin E F, Jewell A M, Xie W, Vignali D, Piedra P A, Brenner M K, Rooney C M. Conserved CTL epitopes on the adenovirus hexon protein expand subgroup cross-reactive and subgroup-specific CD8+ T cells. Blood. 104:2432-2440 (2004)) was examined using a CTL line induced by TYF.
PBMCs prepared from ID*24-8 were stimulated with TYF for 13 days, and then restimulated with TYF or […] (SEQ ID NO: 14) to examine whether the CTL line produces IFNγ.

[2] = system: peripheral blood / PBMCs / peptide-induced CTL lines of HLA-A*24 donors; test: Staining of peripheral blood, PBMCs or peptide-induced CTL lines with MHC-tetramer reagents; type: cell-based, human; parameters: positive rate: CD8-positive, MHC-tetramer reagent-positive cells to viable cells: concentration or dose not given beside the values; conditions: for MHC-tetramer reagent-positive cells (UL and UR) in IFNγ / tetramer plot, almost none producing IFNγ: HIV peptide added, TYF: donor ID*24-8, VYS: donor ID*24-2; for increase of the positive rate from day 0 to day 10: donor ID*24-8, ten days of culture with the peptide; for amount of specific CTLs (CD8 / MHC-tetramer reagent-positive): TYF: donor ID*24-8, 10 days stimulation, VYS: donor ID*24-2, 27 days
Procedure: MBL Co. where the present inventors are affiliated with has acquired exclusive patent licensing rights in Japan for MHC-tetramer reagents (U.S. Pat. No. 5,635,363; French Application No. FR9911133; and U.S. Pat. Nos. 5,723,584, 5,874,239, 5,932,433, and 6,265,552) from Beckman Coulter Co. Based on the patents, PE-labeled MHC-tetramer reagents were prepared using adenovirus-specific CTL epitope peptides and HLA-A*2402 molecules.
Adenovirus-specific CTLs quantification was carried out using MHC-tetramer reagents that was prepared using CTL epitope peptides of the present invention, with peripheral blood, PBMCs isolated from peripheral blood, CTL lines induced using CTL epitope peptides as samples. Examples of quantification using PE-labeled MHC-tetramer reagents are described below. Labelling dyes may be used in an appropriate combination depending on the type of flow cytometer to be used, and is not limited to the examples described below.
Ten μl of a PE-labeled MHC-tetramer reagent, 20 μl of an FITC-labeled antibody for T cell (for example, CD8, CD4, or CD3), and such were added to 200 μl of collected peripheral blood. A CD45 antibody labeled with PC5 or such may also be added to eliminate nonspecific fluorescence due to contaminated erythrocytes. After gentle mixing, the mixture was allowed to stand at room temperature for 30 minutes. OptiLyse B was added, and erythrolysis and fixation was carried out according to the manufacturer's protocol. Two ml of PBS was added, stirred, and the cells were centrifuged at 400×g for 5 minutes. After the supernatant was removed by aspiration, the cells were resuspended in 500 μl of PBS and analyzed using a flow cytometer within 24 hours.
Ten μl of a PE-labeled MHC-tetramer reagent, 20 μl of an FITC-labeled T cell surface antibody (for example, CD8, CD4, or CD3), and such were added to an appropriate amount of PBMCs (10^5 to 10^6 cells) or a CTL line induced by use of CTL epitope peptides. A CD45 antibody labeled with PC5 or such may also be added to eliminate nonspecific fluorescence due to contaminated erythrocytes. After gentle mixing, the cells were allowed to stand at room temperature for 30 minutes. Three ml of PBS was added, stirred, and the cells were centrifuged at 400×g for 5 minutes. After the supernatant was removed by aspiration, the cells were resuspended in 500 μl of PBS. When a CTL line is used, 7-AAD Viability Dye (Non-viable cell detection reagent; MBL Co.) may be added to eliminate nonspecific fluorescence caused by non-viable cells. The cells were analyzed using a flow cytometer within 24 hours.
The results of staining obtained using the five types of MHC-tetramer reagents used to prepare the peptide-induced CTL lines are shown in FIG. 5.

[3] = donor ID*24-8, PBMCs cultured with the epitope peptide for 10 days (day 10)
[4] = donor ID*24-8, immediately after blood collection (day 0)
[5] = restimulation with the specific peptide

TYFNLGNKF [TYF]
cross-reactivity to subgroup C [1]: no cross-reactivity | IFNγ production of the CTL line induced by TYF on restimulation with the named peptide ([1]; PBMCs from ID*24-8 stimulated with TYF for 13 days): produced IFNγ in a TYF-specific manner | CD8-positive and TYF-Tet-positive cells ([1]; PBMCs from ID*24-8 stimulated with TYF for 13 days, restimulated with the named peptide): 1.22% | MHC-tetramer reagent-positive cells (UL and UR) in IFNγ / tetramer plot, almost none producing IFNγ [2]: 1.76% | positive rate: CD8-positive, MHC-tetramer reagent-positive cells to viable cells [2, 3]: 1.53% | positive rate: CD8-positive, MHC-tetramer reagent-positive cells to viable cells [2, 4]: 0.01% | increase of the positive rate from day 0 to day 10 [2]: 153 times | amount of specific CTLs (CD8 / MHC-tetramer reagent-positive) ([2]; restimulation with HIV peptide): 1.67% | amount of specific CTLs (CD8 / MHC-tetramer reagent-positive) [2, 5]: 0.80%

VYSGSIPYL
MHC-tetramer reagent-positive cells (UL and UR) in IFNγ / tetramer plot, almost none producing IFNγ [2]: 8.24% | positive rate: CD8-positive, MHC-tetramer reagent-positive cells to viable cells [2, 3]: 0.15% | positive rate: CD8-positive, MHC-tetramer reagent-positive cells to viable cells [2, 4]: 0.01% | increase of the positive rate from day 0 to day 10 [2]: 15 times | amount of specific CTLs (CD8 / MHC-tetramer reagent-positive) ([2]; restimulation with HIV peptide): 8.33% | amount of specific CTLs (CD8 / MHC-tetramer reagent-positive) [2, 5]: 5.07%
